Reference: US8592367B2, “Nodule specific medicago peptides having antimicrobial activity and pharmaceutical compositions containing the same” (priority 2009, dated 2013)
Entries after “also recorded” stand apart in the source; their conditions may differ. Like-named read-outs stand apart in the source and are kept apart here.

Legend:
[1] = tested on: Arabidopsis (ecotype: wassilewskiya); test: Arabidopsis germination and seedling growth; settings: 50 μg/ml=42 μM
Xanthomonas 2880 [2] = test: CFU determination, broad spectrum activity; assay type: cell-based; settings: 50 μg/ml, Xanthomonas 2880, untreated 10^7
[3] = tested on: Sinorhizobium meliloti AK631; test: PI staining of Sinorhizobium meliloti; settings: 50 μg/ml; for PI: Sinorhizobium meliloti (AK631)
[4] = tested on: Sinorhizobium meliloti AK631; test: CFU determination of Sinorhizobium meliloti; settings: for CFU % / CFU (colony/ml): 1 hr; for CFU determination (colony formation): 3 hours, 2-3×10^6 bacteria, FIG. 2B; for CFU: Sinorhizobium meliloti (AK631), untreated 10^7; for eradication of the bacteria: from the low dose of 20 μg/ml
[5] = tested on: Curtobacterium, flaccumfaciens; test: CFU determination, broad spectrum activity; assay type: cell-based; settings: 50 μg/ml, untreated 10^9
Pseudomonas aeruginosa [6] = test: CFU determination, broad spectrum activity; assay type: cell-based; settings: 50 μg/ml; for CFU: Pseudomonas aeruginosa, untreated 10^7
Xanthomonas 2880 [7] = test: PI staining, broad spectrum activity; assay type: cell-based; settings: 50 μg/ml
[8] = tested on: Pseudomonas syringae pv tomato DC3000; test: CFU determination, broad spectrum activity; assay type: cell-based; settings: 50 μg/ml, Pseudomonas syringae pv tomato DC3000, untreated 10^7
Staphylococcus aureus [9] = test: PI staining, broad spectrum activity; assay type: cell-based; settings: 50 μg/ml
Clavibacter michigense [10] = test: PI staining, broad spectrum activity; assay type: cell-based; settings: 50 μg/ml
Bacillus subtilis [11] = test: CFU determination, broad spectrum activity; assay type: cell-based; settings: 50 μg/ml, untreated 10^6
[12] = tested on: Pseudomonas syringae pv tomato DC3000; test: PI staining, broad spectrum activity; assay type: cell-based; settings: 50 μg/ml
Bacillus subtilis [13] = test: PI staining, broad spectrum activity; assay type: cell-based; settings: 50 μg/ml
Pseudomonas aeruginosa [14] = test: PI staining, broad spectrum activity; assay type: cell-based; settings: 50 μg/ml
Clavibacter michigense [15] = test: CFU determination, broad spectrum activity; assay type: cell-based; settings: 50 μg/ml, untreated 10^9
Staphylococcus aureus [16] = test: CFU determination, broad spectrum activity; assay type: cell-based; settings: 50 μg/ml, untreated 10^6
[17] = tested on: Curtobacterium, flaccumfaciens; test: PI staining, broad spectrum activity; assay type: cell-based; settings: 50 μg/ml
Aspergillus niger = test: Antifungal activity in 96-well microtiter plates; assay type: cell-based; parameters: key: +++: high sensitivity, no hyphal growth; ++: medium sensitivity; +: low sensitivity; −: no effect; settings: 24 h
Aspergillus flavus = test: Antifungal activity in 96-well microtiter plates; assay type: cell-based; parameters: key: +++: high sensitivity, no hyphal growth; ++: medium sensitivity; +: low sensitivity; −: no effect; settings: 24 h
[18] = tested on: Rhizopus stolonifer var. stolonifer; test: Antifungal activity in 96-well microtiter plates; assay type: cell-based; parameters: key: +++: high sensitivity, no hyphal growth; ++: medium sensitivity; +: low sensitivity; −: no effect; settings: 24 h
Candida crusei = test: Antifungal activity in 96-well microtiter plates; assay type: cell-based; parameters: key: +++: high sensitivity, no hyphal growth; ++: medium sensitivity; +: low sensitivity; −: no effect; settings: 24 h
Candida parapsilosis = test: Antifungal activity in 96-well microtiter plates; assay type: cell-based; parameters: key: +++: high sensitivity, no hyphal growth; ++: medium sensitivity; +: low sensitivity; −: no effect; settings: 24 h
Candida albicans = test: Antifungal activity in 96-well microtiter plates; assay type: cell-based; parameters: key: +++: high sensitivity, no hyphal growth; ++: medium sensitivity; +: low sensitivity; −: no effect; settings: 24 h
Fusarium graminearum [19] = assay type: cell-based; parameters: key: +++: high sensitivity, no hyphal growth; ++: medium sensitivity; +: low sensitivity; −: no effect; settings: 24 h
Fusarium graminearum [20] = assay type: cell-based; settings: 50 μg/ml, same at 24 h and 48 h, FIGS. 11C and 11F

Polymyxin B [reference compound]
effect on plant growth [1]: inhibits growth
CFU (Xanthomonas 2880 [2]): CFU: 0
PI [3]: PI: 70%
CFU % ([4]; 50 μg/ml): 0%
CFU (colony/ml) ([4]; 50 μg/ml): 0 colony/ml
CFU determination (colony formation) ([4]; 50 μg/ml): none formed colony
CFU ([4]; 50 μg/ml): CFU: 10^5
CFU [5]: CFU: 0
CFU (Pseudomonas aeruginosa [6]): CFU: 0
PI (Xanthomonas 2880 [7]): PI: 100%
CFU [8]: CFU:0
PI (Staphylococcus aureus [9]): PI: 75%
PI (Clavibacter michigense [10]): PI: 60%
CFU (Bacillus subtilis [11]): CFU: 10^6
PI [12]: PI: 95%
PI (Bacillus subtilis [13]): PI: 60%
PI (Pseudomonas aeruginosa [14]): PI: 50%
CFU (Clavibacter michigense [15]): CFU: 0
CFU (Staphylococcus aureus [16]): CFU: 10^6
PI [17]: PI: 60%

NCR055: cationic NCR peptide (VNDCIRIHCKDDFDCIENRLQVGCRLQREKPRCVNLVCRCLRR; Peptide derived from Medicago truncatula)
Fungal (hyphal) growth, sensitivity (Aspergillus niger; 50 μg/ml): ++
Fungal (hyphal) growth, sensitivity (Aspergillus niger; 100 μg/ml): ++
CFU (Xanthomonas 2880 [2]): CFU: 10^4
Fungal (hyphal) growth, sensitivity (Aspergillus flavus; 50 μg/ml): +
Fungal (hyphal) growth, sensitivity (Aspergillus flavus; 100 μg/ml): ++
PI staining (PI uptake) ([3]; FIG. 2A, listed as NCR55): provoked PI uptake; also recorded: comparable to heat killed bacteria or bacteria treated with polymyxin B
PI [3]: PI: 80%
CFU % ([4]; 20 μg/ml): 0%
CFU (colony/ml) ([4]; 20 μg/ml): 1800 colony/ml
CFU % ([4]; 50 μg/ml): 0%
CFU (colony/ml) ([4]; 50 μg/ml): 0 colony/ml
CFU determination (colony formation) ([4]; 50 μg/ml): none formed colony
CFU ([4]; 50 μg/ml): CFU: 0
eradication of the bacteria [4]: able to eradicate the bacteria in less than an hour
CFU [5]: CFU: 0
CFU (Pseudomonas aeruginosa [6]): CFU: 10^5
PI (Xanthomonas 2880 [7]): PI: 100%
Fungal (hyphal) growth, sensitivity ([18]; 50 μg/ml): ++
Fungal (hyphal) growth, sensitivity ([18]; 100 μg/ml): +++
CFU [8]: CFU: 0
PI (Staphylococcus aureus [9]): PI: 100%
Fungal (hyphal) growth, sensitivity (Candida crusei; 50 μg/ml): +++
Fungal (hyphal) growth, sensitivity (Candida crusei; 100 μg/ml): +++
PI (Clavibacter michigense [10]): PI: 100%
CFU (Bacillus subtilis [11]): CFU: 0
PI [12]: PI: 85%
PI (Bacillus subtilis [13]): PI: 100%
Fungal (hyphal) growth, sensitivity (Candida parapsilosis; 50 μg/ml): +++
Fungal (hyphal) growth, sensitivity (Candida parapsilosis; 100 μg/ml): +++
PI (Pseudomonas aeruginosa [14]): PI: 10%
CFU (Clavibacter michigense [15]): CFU: 0
Fungal (hyphal) growth, sensitivity (Candida albicans; 50 μg/ml): +++
Fungal (hyphal) growth, sensitivity (Candida albicans; 100 μg/ml): +++
PI [17]: PI: 80%
Fungal (hyphal) growth, sensitivity (Fusarium graminearum [19]; 50 μg/ml): −
Fungal (hyphal) growth, sensitivity (Fusarium graminearum [19]; 100 μg/ml): ++

NCR247: cationic NCR peptide (RNGCIVDPRCPYQQCRRPLYCRRR; Peptide derived from Medicago truncatula)
Fungal (hyphal) growth, sensitivity (Aspergillus niger; 25 μg/ml): +++
Fungal (hyphal) growth, sensitivity (Aspergillus niger; 50 μg/ml): +++
Fungal (hyphal) growth, sensitivity (Aspergillus niger; 100 μg/ml): +++
CFU (Xanthomonas 2880 [2]): CFU: 0
Fungal (hyphal) growth, sensitivity (Aspergillus flavus; 25 μg/ml): +++
Fungal (hyphal) growth, sensitivity (Aspergillus flavus; 50 μg/ml): +++
Fungal (hyphal) growth, sensitivity (Aspergillus flavus; 100 μg/ml): +++
PI [3]: PI: 70%
CFU % ([4]; 20 μg/ml): 0%
CFU (colony/ml) ([4]; 20 μg/ml): 0 colony/ml
CFU % ([4]; 50 μg/ml): 0%
CFU (colony/ml) ([4]; 50 μg/ml): 0 colony/ml
CFU determination (colony formation) ([4]; 50 μg/ml): none formed colony
CFU ([4]; 50 μg/ml): CFU: 0
eradication of the bacteria [4]: able to eradicate the bacteria in less than an hour
CFU [5]: CFU: 0
CFU (FIG. 10) (Pseudomonas aeruginosa [6]; strain resistant to conventional antibiotics): completely eradicated
spores and hyphae development (Fusarium graminearum [20]): inhibits the spores and hyphae development
PI (Xanthomonas 2880 [7]): PI: 48%
Fungal (hyphal) growth, sensitivity ([18]; 25 μg/ml): +++
Fungal (hyphal) growth, sensitivity ([18]; 50 μg/ml): +++
Fungal (hyphal) growth, sensitivity ([18]; 100 μg/ml): +++
CFU [8]: CFU: 0
PI (Staphylococcus aureus [9]): PI: 30%
Fungal (hyphal) growth, sensitivity (Candida crusei; 25 μg/ml): +++
Fungal (hyphal) growth, sensitivity (Candida crusei; 50 μg/ml): +++
Fungal (hyphal) growth, sensitivity (Candida crusei; 100 μg/ml): +++
PI (Clavibacter michigense [10]): PI: 50%
CFU (Bacillus subtilis [11]): CFU: 10^6
PI [12]: PI: 60%
PI (Bacillus subtilis [13]): PI: 18%
Fungal (hyphal) growth, sensitivity (Candida parapsilosis; 25 μg/ml): +++
Fungal (hyphal) growth, sensitivity (Candida parapsilosis; 50 μg/ml): +++
Fungal (hyphal) growth, sensitivity (Candida parapsilosis; 100 μg/ml): +++
PI (Pseudomonas aeruginosa [14]): PI: 15%
CFU (Clavibacter michigense [15]): CFU: 0
CFU (Staphylococcus aureus [16]): CFU: 10^5
Fungal (hyphal) growth, sensitivity (Candida albicans; 25 μg/ml): +++
Fungal (hyphal) growth, sensitivity (Candida albicans; 50 μg/ml): +++
Fungal (hyphal) growth, sensitivity (Candida albicans; 100 μg/ml): +++
PI [17]: PI: 27%
Fungal (hyphal) growth, sensitivity (Fusarium graminearum [19]; 25 μg/ml): ++
Fungal (hyphal) growth, sensitivity (Fusarium graminearum [19]; 50 μg/ml): ++
Fungal (hyphal) growth, sensitivity (Fusarium graminearum [19]; 100 μg/ml): ++
